Reference: patent publication US20080102275A1, “Method For Coating Powders” (priority 2004, published 2008)

Legend:
[1] = release/dissolution test of pseudoephedrine particles in distilled water, quantitative determination by UV spectrophotometry; type: physicochemical; conditions: ambient temperature, FIG. 18
[2] = release/dissolution test of BSA particles in distilled water, quantitative determination by UV spectrophotometry; type: physicochemical; conditions: ambient temperature, FIG. 19
Experimental: This time, a heat-sensitive protein, BSA (Bovine Serum Albumin), the mean diameter of which, measured by particle size determination, is 85.6 μm, is coated according to FIG. 2 of the process according to the present invention. 3 g of BSA are placed in the system for injection by CO2 and 3 g of Precirol® are placed in the autoclave. The supercritical medium conditions are 110 bar and 50° C. for a dissolution time of 30 minutes. The pressure for injection of the BSA particles is 80 bar. Once coinjection has been carried out, the coated particles are quantitatively determined by UV spectrophotometry (FIG. 19). While the crude BSA is completely dissolved in distilled water at ambient temperature after 5 minutes, the protein coated with Precirol® (BSA 1 test) for its part takes close to 30 minutes in order to be completely dissolved in distilled water at ambient temperature.

Compound	time to complete dissolution [1] [min]	time to complete dissolution [2] [min]
CN[C@@H](C)[C@@H](O)c1ccccc1 [crude pseudoephedrine, pseudoephedrine]	10	
crude BSA: heat-sensitive protein, BSA (Bovine Serum Albumin), uncoated		5
